{"source": "patent US6316623A", "about": "“Ethylenediamine compound libraries” (priority 1998, dated 2001)", "system": "E. coli imp-", "assay": "microbe, parasite or virus in culture", "format": "cell-based", "details": "Escherichia coli, 24 h, read-out: % inhibition of bacterial growth in culture", "procedure": "In this assay, the strain E. coli imp-obtained from Spenser Bensen (Sampson, B. A., Misra, R. & Benson, S. A. (1989), Genetics, 122, 491-501, Identification and characterization of a new gene of Escherichia coli K-12 involved in outer membrane permeability) is used. To initiate the exponential phase of bacterial growth prior to the assay, a sample of bacteria was grown overnight at 37° C. in Luria broth and then used to reinoculate sample wells of 96-well microtiter plates. The assays were carried out in the 96-well microtiter plates in 150 μL volume with approximately 1×10^6 cells per well.\nBacteria in Luria broth (75 μL) was added to the compound mixtures in solution in 75 μL water in the individual well of the microtiter plate. Final concentrations of the compound mixtures were 25 μM, 10 μM and 1 μM. Each concentration of the compound mixtures were assayed in triplicate. The plates were incubated at 37° C. and growth monitored over a 24 hour period by measuring the optical density at 595 nm using a BioRad model 3550 UV microplate reader. The percentage of growth relative to a well containing no compound was determined. Ampicillin and tetracycline antibiotic positive controls were concurrently tested in each screening assay."}
{"smiles": "CC(C)(C)c1ccc(C(=O)N(CCNC(=O)c2cnccn2)CC2CCCN(C(=O)Cc3ccccc3)C2)cc1", "note": "(racemic) [compound 17957]", "values": [{"measurement": "inhibition at 500 µM", "value": 95.7, "unit": "%"}]}
{"smiles": "CC(C)(C)c1ccc(C(=O)N(CCNC(N)=O)CC2CCCN(C(=O)CO)C2)cc1", "note": "(racemic) [compound 17959]", "values": [{"measurement": "inhibition at 500 µM", "value": 39.5, "unit": "%"}]}
{"smiles": "Cc1ccc(NC(=O)NCCN(C(=O)C2CC2)C2CCN(C(=O)Cc3ccccc3)C2)cc1", "note": "(racemic) [compound 17986]", "values": [{"measurement": "inhibition at 500 µM", "value": 35.2, "unit": "%"}]}
{"smiles": "CC(C)(C)c1ccc(C(=O)N(CCNC(=O)c2cnccn2)C2CCN(C(=O)Cc3ccccc3)C2)cc1", "note": "(racemic) [compound 17989]", "values": [{"measurement": "inhibition at 500 µM", "value": 38.5, "unit": "%"}]}
{"smiles": "O=C(NCCN(C(=O)CO)C1CCN(C(=O)Cc2ccccc2)C1)c1cnccn1", "note": "(racemic) [compound 18005]", "values": [{"measurement": "inhibition at 500 µM", "value": 61.1, "unit": "%"}]}
{"smiles": "CC(C)(C)c1ccc(C(=O)N(CCNC(=O)c2cnccn2)CC2CCN(C(=O)Cc3ccccc3)CC2)cc1", "note": "[compound 17925]", "values": [{"measurement": "inhibition at 500 µM", "value": 93.9, "unit": "%"}]}
{"smiles": "CC(C)(C)c1ccc(C(=O)N(CCNC(N)=O)CC2CCN(C(=O)CO)CC2)cc1", "note": "[compound 17927]", "values": [{"measurement": "inhibition at 500 µM", "value": 96.3, "unit": "%"}]}
{"smiles": "Cc1ccc(NC(=O)NCCN(CC2CCN(C(=O)CO)CC2)C(=O)c2ccc(N)cc2)cc1", "note": "[compound 17946]", "values": [{"measurement": "inhibition at 500 µM", "value": 98.7, "unit": "%"}]}
